Read-outs that look alike come from different tables or passages of the source.
Key:
[1] = system: NCI-H522 (NSCLC); experiment: NCI 60 one dose screen; assay type: cell-based, human; conditions: Non-small Cell Lung Cancer
[2] = system: glioblastoma (SF-295); experiment: NCI 60 five dose screen; conditions: SF-295 (CNS Cancer), five dose
[3] = system: SF-295; experiment: NCI 60 one dose screen; assay type: cell-based, human; conditions: one dose; CNS Cancer; SF-295
[4] = system: gliosarcoma (SF-539); experiment: NCI 60 five dose screen; conditions: SF-539 (CNS Cancer), five dose
[5] = system: 60 different human tumor cell lines; conditions: for GI50 / TGI: five dose
[6] = A549/ATCC (Non-small Cell Lung Cancer)
[7] = EKVX (Non-small Cell Lung Cancer)
[8] = HOP-62 (Non-small Cell Lung Cancer)
[9] = HOP-92 (Non-small Cell Lung Cancer)
[10] = NCI-H23 (Non-small Cell Lung Cancer)
[11] = NCI-H226 (Non-small Cell Lung Cancer)
[12] = NCI-H322M (Non-small Cell Lung Cancer)
[13] = NCI-H460 (Non-small Cell Lung Cancer)
[14] = NCI-H522 (Non-small Cell Lung Cancer)

## C[C@]12CCc3nc(Nc4ccc(O)cc4)sc3C1=CC[C@@H]1[C@@H]2CC[C@]2(C)C(=O)CC[C@@H]12 [IIa.35]
[1]
  Growth Percent: −55.25%
[2]
  GI50: 5260 nM
  TGI: 3.59E−5
[2]; read-out: LC50
  CC50: > 100000 nM
[3]
  Growth Percent: 52.47%
[4]
  GI50: 1760 nM
  TGI: 3.59E−6
[4]; read-out: LC50
  CC50: 7340 nM
[5]
  CC50: > 100000 nM
[5]; 786-0 (Renal Cancer)
  GI50: 1800 nM
  TGI: 3.82
[5]; A498 (Renal Cancer)
  GI50: 14200 nM
  TGI: 8.06E−5
[5]; [6]
  GI50: 4420 nM
  TGI: >1.00E−4
[5]; ACHN (Renal Cancer)
  GI50: 2920 nM
  TGI: 9.29E−6
[5]; BT-549 (Breast Cancer)
  GI50: 3130 nM
  TGI: >1.00E−4
[5]; CAKI-1 (Renal Cancer)
  GI50: 1930 nM
  TGI: 3.97E−6
[5]; CCRF-CEM (Leukemia)
  GI50: 2470 nM
  TGI: >1.00E−4
[5]; COLO 205 (Colon Cancer)
  GI50: 2000 nM
  TGI: 3.90E−6
[5]; DU-145 (Prostate Cancer)
  GI50: 1660 nM
  TGI: 3.14E−6
[5]; [7]
  GI50: 10400 nM
  TGI: 4.00E−4
[5]; HCC-2998 (Colon Cancer)
  GI50: 4110 nM
  TGI: >1.00E−4
[5]; HCT-15 (Colon Cancer)
  GI50: 1660 nM
  TGI: 4.40E−6
[5]; HCT-116 (Colon Cancer)
  GI50: 1900 nM
[5]; HL-60(TB) (Leukemia)
  GI50: 2570 nM
  TGI: 7.27E−6
[5]; [8]
  GI50: 3280 nM
  TGI: 1.26E−5
[5]; [9]
  GI50: 2390 nM
  TGI: 5.65E−6
[5]; HS 578T (Breast Cancer)
  GI50: 3380 nM
  TGI: >1.00E−4
[5]; HT29 (Colon Cancer)
  GI50: 2130 nM
  TGI: 5.59E−6
[5]; IGROV1 (Ovarian Cancer)
  GI50: 1990 nM
  TGI: 5.02E−6
[5]; K-562 (Leukemia)
  GI50: 2960 nM
  TGI: >1.00E−4
[5]; KM12 (Colon Cancer)
  GI50: 1930 nM
  TGI: 4.06E−6
[5]; LOX IMVI (Melanoma)
  GI50: 1580 nM
  TGI: 3.04E−6
[5]; M14 (Melanoma)
  GI50: 2680 nM
[5]; MALME-3M (Melanoma)
  GI50: 1810 nM
  TGI: 4.03E−6
[5]; MCF7 (Breast Cancer)
  GI50: 1660 nM
  TGI: 4.26E−6
[5]; MDA-MB-231/ATCC (Breast Cancer)
  GI50: 3220 nM
[5]; MDA-MB-435 (Melanoma)
  GI50: 2080 nM
  TGI: 5.32E−6
[5]; MDA-MB-468 (Breast Cancer)
  GI50: 2170 nM
  TGI: 5.80E−6
[5]; MOLT-4 (Leukemia)
  GI50: 2380 nM
  TGI: >1.00E−4
[5]; [10]
  GI50: 3960 nM
  TGI: >1.00E−4
[5]; [11]
  GI50: 2860 nM
  TGI: 8.52E−6
[5]; [12]
  GI50: 6400 nM
  TGI: >1.00E−4
[5]; [13]
  GI50: 3010 nM
  TGI: 1.05E−5
[5]; [14]
  GI50: 1420 nM
  TGI: 2.96E−6
[5]; NCI/ADR-RES (Ovarian Cancer)
  GI50: 3270 nM
  TGI: >1.00E−4
[5]; OVCAR-3 (Ovarian Cancer)
  GI50: 1710 nM
  TGI: 3.38E−6
[5]; OVCAR-4 (Ovarian Cancer)
  GI50: 2030 nM
[5]; OVCAR-5 (Ovarian Cancer)
  GI50: 3910 nM
  TGI: >1.00E−4
[5]; OVCAR-8 (Ovarian Cancer)
  GI50: 3220 nM

Source: US20250296953A1, “3,4-THIAZOLO-STEROIDS AND METHODS OF MAKING AND USING THE SAME” (Arkansas State University - Jonesboro, priority 2018, published 2025)
